According to patent US8350079B2, “Treprostinil formulation” (United Therapeutics Corporation, priority 2008, dated 2013):

What was measured:
[1] = Extended room temperature storage of treprostinil monohydrate lot D-1007-089 (18-month stability summary: water content, assay/impurity profile); format: physicochemical; conditions: for TREPROSTINIL Assay: in % (unit assumed)
Description: 2. UT Stability Summary (18-month) for monohydrate lot # D-1007-089
A 3.4-kg sample of treprostinil diethanolamine salt was dissolved in 36 L of sterile water, 60 L of ethyl acetate and 3.6 L of 3 M HCl were added and the mixture stirred. The layers were separated and the aqueous layer was extracted thrice with 20-L portions of ethyl acetate. The four organic layers were combined, the organic solution washed twice with 20-L portions of sterile water, once with 20 L of brine and dried over 2.86 kg of anhydrous sodium sulfate. The mixture was filtered and the filtrate was concentrated to yield treprostinil as a gummy solid. This solid was transferred to glass drying trays and let air-dry for 66 hours. This solid was then dissolved in 23.8 kg of ethanol, warmed to 48° C. and treated with 23.8 kg of warm (40-50° C.) sterile water. The solution was stirred and then stirring was stopped to allow the treprostinil to slowly crystallize. The resulting white solid was collected by filtration in an Aurora filter, washed with 45 L of a cold (6° C.) 20% ethanol in sterile water solution, the filter moved to a Hepa-filtered Finishing Room and the solid dried under house vacuum for 23 hours. The solid was transferred to glass drying trays and further air-dried for 115 hours until the total weight of the material was constant (no further solvent loss). A sample of this treprostinil monohydrate was taken as Lot #D-1007-089 for stability studies. The remaining material was further dried in a vacuum oven at 55° C. and 1.66 Torr for 10 hours to give 2.68 kg (96.4%) of anhydrous treprostinil (Lot #01G07018).
One of the stability studies has followed the monohydrate of TREPROSTINIL stored in an open container.

[2] = Stability tests of treprostinil forms (dimer formation, room temperature stability); format: physicochemical; conditions: room temperature
Description: The anhydrous form of treprostinil (TREPROSTINIL) has been previously described, e.g., in J. Org. Chem. 2004, 69, 1890-1902. […] A larger amount of dimers can form at higher temperatures. However, dimer formation is negligible at 5° C. Therefore, anhydrous treprostinil must be refrigerated for storage and transport. In the past, treprostinil had to be refrigerated and shipped with ice packs to maintain low (2° C.-8° C.) temperatures.
The instability of anhydrous treprostinil also imposes challenges to its preparation. To obtain anhydrous treprostinil, wet compound from recrystallization was heated in a vacuum. […] Therefore, heating temperature must be carefully controlled to avoid high heat when drying treprostinil in order to remove all water, otherwise these two dimer impurities will be produced.
Data has been generated to characterize a monohydrate form of treprostinil. […] Treprostinil monohydrate can be stored and shipped with no special handling.

[3] = 1 Month, Container 1 (closed), room temperature
[4] = 1 Month, Container 2 (covered with Kimwipe), room temperature
[5] = 2 Months, Container 1 (closed), room temperature
[6] = 2 Months, Container 2 (covered with Kimwipe), room temperature
[7] = 3 Months, Container 1 (closed), room temperature
[8] = 3 Months, Container 2 (covered with Kimwipe), room temperature
[9] = 6 Months, Container 1 (closed), room temperature
[10] = 6 Months, Container 2 (covered with Kimwipe), room temperature
[11] = 12 Months, Container 1 (closed), room temperature
[12] = 12 Months, Container 2 (covered with Kimwipe), room temperature
[13] = 18 Month, Container 1 (closed), room temperature
[14] = 18 Month, Container 2 (covered with Kimwipe), room temperature
[15] = Initial, Container 1 (closed), room temperature
[16] = Initial, Container 2 (covered with Kimwipe), room temperature

CCCCC[C@H](O)CC[C@@H]1[C@H]2Cc3cccc(OCC(=O)O)c3C[C@H]2C[C@H]1O [TREPROSTINIL Lot# D-1007-089, treprostinil monohydrate]
98.1: TREPROSTINIL Assay [1, 7]
100.3: TREPROSTINIL Assay [1, 12] | TREPROSTINIL Assay [1, 13]
< 0.05%: 751W93 [1, 11] | 751W93 [1, 12] | 751W93 [1, 13] | 751W93 [1, 14]
0.04%: 751W93 [1, 3] | 751W93 [1, 4] | 751W93 [1, 5] | 751W93 [1, 6] | 751W93 [1, 7] | 751W93 [1, 8] | 751W93 [1, 9] | 751W93 [1, 10] | 751W93 [1, 15] | 751W93 [1, 16]
0.05: Impurity 1 [1, 3] | Impurity 2 [1, 3] | Impurity 1 [1, 4] | Impurity 2 [1, 4] | Impurity 1 [1, 5] | Impurity 2 [1, 5] | Impurity 1 [1, 6] | Impurity 2 [1, 6] | Impurity 2 [1, 11] | Impurity 2 [1, 12] | Impurity 2 [1, 13] | Impurity 2 [1, 14] | Impurity 2 [1, 15] | Impurity 1 [1, 16]
99.5: TREPROSTINIL Assay [1, 5] | TREPROSTINIL Assay [1, 16]
has not disappeared: Retention of the one mole of water in the solid ([1]; open container, over 18-months)
4.46%: Water, KF [1, 5]
99.8: TREPROSTINIL Assay [1, 14]
4.51%: Water, KF [1, 7]
more stable than the anhydrous form: Stability compared with the anhydrous form ([1]; room temperature, e.g. 25° C. / ambient temperatures)
99.4: TREPROSTINIL Assay [1, 9]
99.3: TREPROSTINIL Assay [1, 10]
99.6: TREPROSTINIL Assay [1, 6] | TREPROSTINIL Assay [1, 15]
4.59%: Water, KF [1, 9]
4.48%: Water, KF [1, 8]
4.55%: Water, KF [1, 15]
0.6%: Total impurities [1, 9] | Total impurities [1, 10]
0.05%: Total impurities [1, 12] | Total impurities [1, 13] | Total impurities [1, 14]
4.73%: Water, KF [1, 12]
<0.05: Impurity 2 [1, 7] | Impurity 2 [1, 8] | Impurity 1 [1, 9] | Impurity 2 [1, 9] | Impurity 1 [1, 10] | Impurity 2 [1, 10] | Impurity 1 [1, 13] | Impurity 1 [1, 14] | Impurity 2 [1, 16]
4.72%: Water, KF [1, 10] | Water, KF [1, 11] | Water, KF [1, 14]
100.4: TREPROSTINIL Assay [1, 4]
0.1%: 750W93 [1, 9] | 750W93 [1, 15] | 750W93 [1, 16]
4.37%: Water, KF [1, 16]
0.09%: 750W93 [1, 3] | 750W93 [1, 4] | 750W93 [1, 5] | 750W93 [1, 6] | 750W93 [1, 7] | 750W93 [1, 8] | 750W93 [1, 10] | 750W93 [1, 11] | 750W93 [1, 12] | 750W93 [1, 13] | 750W93 [1, 14]
0.5%: Total impurities [1, 3] | Total impurities [1, 4] | Total impurities [1, 5] | Total impurities [1, 6] | Total impurities [1, 7] | Total impurities [1, 8] | Total impurities [1, 11] | Total impurities [1, 15] | Total impurities [1, 16]
98.6: TREPROSTINIL Assay [1, 8]
4.67%: Water, KF [1, 13]
0.06: Impurity 1 [1, 7] | Impurity 1 [1, 8] | Impurity 1 [1, 11] | Impurity 1 [1, 12] | Impurity 1 [1, 15]
100.1: TREPROSTINIL Assay [1, 3] | TREPROSTINIL Assay [1, 11]
4.47%: Water, KF [1, 6]
0.2%: TREPROSTINIL Ethyl Ester [1, 3] | TREPROSTINIL Ethyl Ester [1, 4] | TREPROSTINIL Ethyl Ester [1, 5] | TREPROSTINIL Ethyl Ester [1, 6] | TREPROSTINIL Ethyl Ester [1, 7] | TREPROSTINIL Ethyl Ester [1, 8] | TREPROSTINIL Ethyl Ester [1, 9] | TREPROSTINIL Ethyl Ester [1, 10] | TREPROSTINIL Ethyl Ester [1, 11] | TREPROSTINIL Ethyl Ester [1, 12] | TREPROSTINIL Ethyl Ester [1, 13] | TREPROSTINIL Ethyl Ester [1, 14] | TREPROSTINIL Ethyl Ester [1, 15] | TREPROSTINIL Ethyl Ester [1, 16]
stable at room temperature: Stability at room temperature [2]
